Experimental data: patent publication US20200187502A1, “MICROBIOCIDAL OXADIAZOLE DERIVATIVES” (SYNGENTA PARTICIPATIONS AG, priority 2017, published 2020)

What was measured:
[1] = test system: Puccinia recondita f. Sp. Tritici; assay: Fungicidal activity, wheat leaf disc preventative (brown rust); assay type: in vivo; details: foliar, 200 ppm in the applied formulation, wheat leaf segments cv. Kanzler, compared to untreated control, 7 to 9 days after application, read-out: disease control
How it was run: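 Preventative leaf-segment test: spray application of diluted formulated compound on wheat cv. Kanzler, spore inoculation after 1 day. Percent control relative to untreated segments rated 7 to 9 days post-application, with incubation at 19° C, 75% relative humidity, 12 h photoperiod.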

[2] = test system: Phakopsora pachyrhizi; assay: Fungicidal activity, soybean leaf disc preventative (Asian soybean rust); assay type: in vivo; details: foliar, 200 ppm in the applied formulation, soybean leaf disks, compared to untreated control, 12 to 14 days after application, read-out: disease control
Method: Leaf disks or leaf segments of various plant species are cut from plants grown in a greenhouse. The cut leaf disks or segments are placed in multiwell plates (24-well format) onto water agar. The leaf disks are sprayed with a test solution before (preventative) or after (curative) inoculation. Compounds to be tested are prepared as DMSO solutions (max. 10 mg/ml) which are diluted to the appropriate concentration with 0.025% Tween20 just before spraying. The inoculated leaf disks or segments are incubated under defined conditions (temperature, relative humidity, light, etc.) according to the respective test system. A single evaluation of disease level is carried out 3 to 14 days after inoculation, depending on the pathosystem. Percent disease control relative to the untreated check leaf disks or segments is then calculated.
Soybean leaf disks are placed on water agar in multiwell plates (24-well format) and sprayed with the formulated test compound diluted in water. One day after application leaf discs are inoculated by spraying a spore suspension on the lower leaf surface. After an incubation period in a climate cabinet of 24-36 hours in darkness at 20° C. and 75% rh leaf disc are kept at 20° C. with 12 h light/day and 75% rh. The activity of a compound is assessed as percent disease control compared to untreated when an appropriate level of disease damage appears in untreated check leaf disks (12 to 14 days after application).
The following compounds at 200 ppm in the applied formulation give at least 80% disease control in this test when compared to untreated control leaf disks under the same conditions, which show extensive disease development.

[3] = test system: Puccinia recondita f. Sp. Tritici; assay: Fungicidal activity, wheat leaf disc curative (brown rust); assay type: in vivo; details: foliar, 200 ppm in the applied formulation, wheat leaf segments cv. Kanzler, curative (applied 1 day after inoculation), compared to untreated control, 6 to 8 days after application, read-out: disease control
How it was run: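 Compound applied 1 day after spore inoculation of wheat cv. Kanzler leaf segments on agar (dark, 19 °C, 75% RH before treatment). After further incubation under 12 h light/12 h dark at 19 °C and 75% RH, disease control relative to untreated segments rated 6–8 days post-application.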

[4] = test system: Glomerella lacenarium (Colletotrichum lacenarium); assay: Fungicidal activity, liquid culture, cucumber preventative (anthracnose); assay type: cell-based; details: 20 ppm in the applied formulation, liquid culture in PDB, inhibition of growth measured photometrically 3 to 4 days after application, compared to untreated control, read-out: disease control
How it was run: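 Photometric read-out of fungal growth 3 to 4 days after application, expressed as percent control relative to untreated wells. Plates held at 24 °C. Compound placed in DMSO before adding PDB broth seeded with conidia from cryogenic storage.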

CON(Cc1ccc(-c2noc(C(F)(F)F)n2)s1)C(=O)C1CC1(F)F (stereo not drawn) [Compound 1.8, 2,2-difluoro-N-methoxy-N-[[5-[5-(trifluoromethyl)-1,2,4-oxadiazol-3-yl]-2-thienyl]methyl]cyclopropanecarboxamide]
≥ 80%: pest or weed control at 200 ppm [1] | pest or weed control at 200 ppm [2] | pest or weed control at 200 ppm [3] | inhibition of growth at 20 ppm [4]

CNC(=O)N(Cc1ccc(-c2noc(C(F)(F)F)n2)s1)C(C)C [Compound 4.13, 1-isopropyl-3-methyl-1-[[5-[5-(trifluoromethyl)-1,2,4-oxadiazol-3-yl]-2-thienyl]methyl]urea]
≥ 80%: pest or weed control at 200 ppm [1] | pest or weed control at 200 ppm [2] | pest or weed control at 200 ppm [3] | inhibition of growth at 20 ppm [4]

CCN(Cc1ccc(-c2noc(C(F)(F)F)n2)s1)C(=O)NC(C)C [Compound 4.9, 1-ethyl-3-isopropyl-1-[[5-[5-(trifluoromethyl)-1,2,4-oxadiazol-3-yl]-2-thienyl]methyl]urea]
≥ 80%: pest or weed control at 200 ppm [1] | pest or weed control at 200 ppm [2] | pest or weed control at 200 ppm [3] | inhibition of growth at 20 ppm [4]

CC(C)(C)OC(=O)NCc1ccc(-c2noc(C(F)(F)F)n2)s1 [Compound 2.1, tert-butyl N-[[5-[5-(trifluoromethyl)-1,2,4-oxadiazol-3-yl]-2-thienyl]methyl]carbamate]
≥ 80%: pest or weed control at 200 ppm [1] | pest or weed control at 200 ppm [2] | pest or weed control at 200 ppm [3] | inhibition of growth at 20 ppm [4]

CON(Cc1ccc(-c2noc(C(F)(F)F)n2)s1)C(=O)C1CCOC1 (stereo not drawn) [Compound 1.10, N-methoxy-N-[[5-[5-(trifluoromethyl)-1,2,4-oxadiazol-3-yl]-2-thienyl]methyl]tetrahydrofuran-3-carboxamide]
≥ 80%: pest or weed control at 200 ppm [1] | pest or weed control at 200 ppm [2] | pest or weed control at 200 ppm [3] | inhibition of growth at 20 ppm [4]

COCCS(=O)(=O)N(C)Cc1ccc(-c2noc(C(F)(F)F)n2)s1 [Compound 6.21, 2-methoxy-N-methyl-N-[[5-[5-(trifluoromethyl)-1,2,4-oxadiazol-3-yl]-2-thienyl]methyl]ethanesulfonamide]
≥ 80%: pest or weed control at 200 ppm [1] | pest or weed control at 200 ppm [2] | pest or weed control at 200 ppm [3] | inhibition of growth at 20 ppm [4]

CCN(Cc1ccc(-c2noc(C(F)(F)F)n2)s1)C(=O)C(N)=O [Compound 6.5, N′-ethyl-N′-[[5-[5-(trifluoromethyl)-1,2,4-oxadiazol-3-yl]-2-thienyl]methyl]oxamide]
≥ 80%: pest or weed control at 200 ppm [1] | pest or weed control at 200 ppm [2] | pest or weed control at 200 ppm [3] | inhibition of growth at 20 ppm [4]

C=CCN(C)C(=O)N(CC)Cc1ccc(-c2noc(C(F)(F)F)n2)s1 [Compound 4.71, 1-allyl-3-ethyl-1-methyl-3-[[5-[5-(trifluoromethyl)-1,2,4-oxadiazol-3-yl]-2-thienyl]methyl]urea]
≥ 80%: pest or weed control at 200 ppm [1] | pest or weed control at 200 ppm [2] | pest or weed control at 200 ppm [3] | inhibition of growth at 20 ppm [4]

CC(C)NC(=O)N(C)Cc1ccc(-c2noc(C(F)(F)F)n2)s1 [Compound 4.17, 3-isopropyl-1-methyl-1-[[5-[5-(trifluoromethyl)-1,2,4-oxadiazol-3-yl]-2-thienyl]methyl]urea]
≥ 80%: pest or weed control at 200 ppm [1] | pest or weed control at 200 ppm [2] | pest or weed control at 200 ppm [3] | inhibition of growth at 20 ppm [4]

CN(Cc1ccc(-c2noc(C(F)(F)F)n2)s1)C(=O)CC(F)(F)F [Compound 4.40, 3,3,3-trifluoro-N-methyl-N-[[5-[5-(trifluoromethyl)-1,2,4-oxadiazol-3-yl]-2-thienyl]methyl]propanamide]
≥ 80%: pest or weed control at 200 ppm [1] | pest or weed control at 200 ppm [2] | pest or weed control at 200 ppm [3] | inhibition of growth at 20 ppm [4]

COC(C)C(=O)N(C)Cc1ccc(-c2noc(C(F)(F)F)n2)s1 (stereo not drawn) [Compound 4.15, 2-methoxy-N-methyl-N-[[5-[5-(trifluoromethyl)-1,2,4-oxadiazol-3-yl]-2-thienyl]methyl]propanamide]
≥ 80%: pest or weed control at 200 ppm [1] | pest or weed control at 200 ppm [2] | pest or weed control at 200 ppm [3] | inhibition of growth at 20 ppm [4]

O=C(C1CC1)N(Cc1ccc(-c2noc(C(F)(F)F)n2)s1)C1CC1 [Compound 5.2, N-cyclopropyl-N-[[5-[5-(trifluoromethyl)-1,2,4-oxadiazol-3-yl]-2-thienyl]methyl]cyclopropanecarboxamide]
≥ 80%: pest or weed control at 200 ppm [1] | pest or weed control at 200 ppm [2] | pest or weed control at 200 ppm [3] | inhibition of growth at 20 ppm [4]

COCCNC(=O)N(Cc1ccc(-c2noc(C(F)(F)F)n2)s1)OC [Compound 1.53, 1-methoxy-3-(2-methoxyethyl)-1-[[5-[5-(trifluoromethyl)-1,2,4-oxadiazol-3-yl]-2-thienyl]methyl]urea]
≥ 80%: pest or weed control at 200 ppm [1] | pest or weed control at 200 ppm [2] | pest or weed control at 200 ppm [3] | inhibition of growth at 20 ppm [4]

CN(Cc1ccc(-c2noc(C(F)(F)F)n2)s1)C(=O)C1CC1 [Compound 5.1, N-methyl-N-[[5-[5-(trifluoromethyl)-1,2,4-oxadiazol-3-yl]-2-thienyl]methyl]cyclopropanecarboxamide]
≥ 80%: pest or weed control at 200 ppm [1] | pest or weed control at 200 ppm [2] | pest or weed control at 200 ppm [3] | inhibition of growth at 20 ppm [4]

CON(Cc1ccc(-c2noc(C(F)(F)F)n2)s1)C(=O)C1CC1C (stereo not drawn) [Compound 1.14, N-methoxy-2-methyl-N-[[5-[5-(trifluoromethyl)-1,2,4-oxadiazol-3-yl]-2-thienyl]methyl]cyclopropanecarboxamide]
≥ 80%: pest or weed control at 200 ppm [1] | pest or weed control at 200 ppm [2] | pest or weed control at 200 ppm [3] | inhibition of growth at 20 ppm [4]

COCCC(=O)N(Cc1ccc(-c2noc(C(F)(F)F)n2)s1)C1CC1 [Compound 4.55, N-cyclopropyl-3-methoxy-N-[[5-[5-(trifluoromethyl)-1,2,4-oxadiazol-3-yl]-2-thienyl]methyl]propanamide]
≥ 80%: pest or weed control at 200 ppm [1] | pest or weed control at 200 ppm [2] | pest or weed control at 200 ppm [3] | inhibition of growth at 20 ppm [4]

CCC(=O)NCc1ccc(-c2noc(C(F)(F)F)n2)s1 [Compound 2.5, N-[[5-[5-(trifluoromethyl)-1,2,4-oxadiazol-3-yl]-2-thienyl]methyl]propanamide]
≥ 80%: pest or weed control at 200 ppm [1] | pest or weed control at 200 ppm [2] | pest or weed control at 200 ppm [3] | inhibition of growth at 20 ppm [4]

COCC(=O)N(Cc1ccc(-c2noc(C(F)(F)F)n2)s1)C1CC1 [Compound 4.52, N-cyclopropyl-2-methoxy-N-[[5-[5-(trifluoromethyl)-1,2,4-oxadiazol-3-yl]-2-thienyl]methyl]acetamide]
≥ 80%: pest or weed control at 200 ppm [1] | pest or weed control at 200 ppm [2] | pest or weed control at 200 ppm [3] | inhibition of growth at 20 ppm [4]
